The source made the active and inactive calls. The calls are words filed in the database; no cut-off is given here.

The test system of test [1] is Staphylococcus aureus. Kind of test: Inhibition of biofilm formation in Staphylococcus aureus AH133 transformed with GFP assessed as zone of inhibition at 16 mg/ml after 24 hrs by confocal laser scanning microscopy. The test is classed as functional. The settings on record: for zone of inhibition at 16000 µg/mL: AH133, 24 h, read-out: IZ.
The test system of test [2] is Staphylococcus aureus. Kind of test: Inhibition of biofilm formation in Staphylococcus aureus AH133 transformed with GFP assessed as zone of inhibition at 10 to 20 ug/disc after 24 hrs by confocal laser scanning microscopy. The test is classed as functional, organism-based.
Test [3] concerns Staphylococcus aureus. Kind of test: Inhibition of biofilm formation in Staphylococcus aureus AH133 transformed with GFP assessed as reduction in recovery of CFU at 80 ug/disc after 24 hrs by confocal laser scanning microscopy. The test is classed as functional, organism-based.
The subject of test [4] is Staphylococcus aureus. Kind of test: Inhibition of biofilm formation in Staphylococcus aureus AH133 transformed with GFP assessed as zone of inhibition at 40 to 80 ug/disc after 24 hrs by confocal laser scanning microscopy. The test is classed as functional, organism-based.

On to `CC1(C)S[C@@H]2[C@H](NC(=O)[C@H](N)c3ccccc3)C(=O)N2[C@H]1C(=O)O`, for which, in the test with Staphylococcus aureus [1], the inhibition entry was “Active”.
`O=c1cc(-c2ccc(O)c(O)c2)oc2cc(O)c(O)c(O)c12` [6-HYDROXYLUTEOLIN]: the inhibition result in the test on Staphylococcus aureus [2] is “inactive”. The inhibition result in the test with Staphylococcus aureus [3] and with Staphylococcus aureus [4] was “Active” each time. In the test with Staphylococcus aureus [1], the zone of inhibition at 16000 µg/mL is 8 mm.
`COc1cc2oc(-c3ccc(O)c(O)c3)cc(=O)c2c(O)c1OC` [CIRSILIOL]: the inhibition entry in the test with Staphylococcus aureus [2] was “inactive”. For the same molecule, the inhibition result with Staphylococcus aureus [3] and in the test with Staphylococcus aureus [4] was “Active” in each case. In the test with Staphylococcus aureus [1], the zone of inhibition at 16000 µg/mL came out at 10.3 mm.

For the origin of these results see ChEMBL document CHEMBL3352580, “Teucrium polium phenylethanol and iridoid glycoside characterization and flavonoid inhibition of biofilm-forming Staphylococcus aureus” (2015).
